Results published in patent US20260256789A1, “METHODS FOR TREATMENT OF CANCER” (Frontier Medicines Corporation, priority 2022, published 2026).

Target: T1, KRAS G12C (GMPPNP-loaded) and cRAF Ras-binding domain (Homo sapiens, UniProt P01116, C118S/C51S/C80L/G12C)
T1 construct: truncated version comprising amino acids 1-169
Assay: Inhibition of KRAS G12C and cRAF binding (AlphaScreen)
Settings: KRAS G12C preloaded with GTP analogue GMPPNP, 2 hours preincubation
Source text: The ability of compounds of Formula (A), Formula (B) and Formula (C), and pharmaceutically acceptable salts and/or isotopologues thereof, to inhibit activity of the GTP-bound form of KRAS G12C can be tested using methods such as the in vitro assay described in Example 179 below. Example 179 describes determining, for various compounds, the half-maximal inhibition (IC50) of KRAS G12C loaded with GTP analogue GMPPNP from binding to cRaf, as the Ras-binding domain (RBD). Example 180 describes determining, for various compounds, the half-maximal inhibition (IC50) of KRAS G12C loaded with GTP analogue GMPPNP from binding to PI3Kα, as the Ras-binding domain (RBD). Example 181 describes testing compounds for the ability to inhibit cell viability in MCF10A G12C/A59G mutant, which abrogates GTPase activity, thus preventing hydrolysis of GTP to GDP.
The AlphaScreen technology was used to determine IC50s for compound inhibition of KRAS G12C (present as the Cys-light (C51S, C80L and C118S), truncated version comprising amino acids 1-169) and cRAF interaction. Compounds were diluted in 100% DMSO and each compound concentration was spotted at 200 nl/well onto low volume, white 384 well plates. The KRAS G12C contained a biotin-AviTag and the cRaf, as Ras-binding domain (amino acids 50-131, RBD), was GST-tagged. KRAS G12C was preloaded with the GTP analogue Guanosine 5′-[β,γ-imido]triphosphate (GMPPNP). The KRAS G12C was diluted in 25 mM Hepes, pH 7.4, 150 mM NaCl, 5 mM MgCl2, 0.01% TritonX-100 and 10 μM GMPPNP and added at 10 ul/well to compound-spotted plates resulting in a DMSO concentration of 2%. Plates were incubated for 2 hours. A mixture of RBD and the AlphaScreen streptavidin donor and glutathione acceptor beads diluted in 25 mM Hepes, pH 7.4, 150 mM NaCl, 5 mM MgCl2, 0.01% TritonX-100 and 2% DMSO was then added at 10 ul/well and incubated for 60-90 minutes before the samples were read for emission at 570 nm after excitation of the donor beads at 680 nm. All incubations were performed at room temperature. The final top compound concentration was 50 μM with 1:3 titrations for 10-point dose response curves. Final assay conditions were 0.5 nM KRAS G12C, 0.75 nM RBD and 5 μg/ml each of AlphaScreen donor and acceptor beads. IC50s were determined using nonlinear regression fit of [inhibitor] vs. response (4 parameters). […]

T1 sequence (P01116 1-169 isoform P01116-2 G12C/C51S/C80L/C118S): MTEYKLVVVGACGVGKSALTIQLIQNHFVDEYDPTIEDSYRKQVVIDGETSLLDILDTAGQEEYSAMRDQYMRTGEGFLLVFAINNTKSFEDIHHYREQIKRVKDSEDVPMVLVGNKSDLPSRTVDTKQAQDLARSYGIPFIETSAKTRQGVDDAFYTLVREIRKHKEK

| IC50 | SMILES |
| --- | --- |
| 10 to 100 nM | Cc1noc(/C=C/C(=O)N2CC[C@@H](N(C)c3nc(OCC45CCCN4CCC5)nc4c3C[C@H](C)[C@@H](c3nc(N)cc(C)c3C(F)(F)F)C4)C2)n1 (single isomer, unassigned) [Example 17] |
| 10 to 100 nM | Cc1cc(N)nc(-c2ncc3c(N(C)CC4CN(C(=O)/C=C/c5nc(C(C)C)no5)C4)nc(OC[C@@]45CCCN4C[C@H](F)C5)nc3c2F)c1C(F)(F)F [Example 154] |
| 10 to 100 nM | Cc1cc(N)nc(-c2ncc3c(N(C)[C@@H]4C[C@@H](C)N(C#N)C4)nc(OC[C@@]45CCCN4C[C@H](F)C5)nc3c2F)c1C(F)(F)F (single isomer, unassigned) [Example 40] |
| ≥ 500 nM | C=CC(=O)N1CC(CN(C)c2nc(OCC34CCCN3CCC4)nc3c2C[C@@H](C)[C@H](c2nc(N)cc(C)c2C(F)(F)F)C3)C1 [Example 199] |
| < 10 nM | Cc1noc(/C=C/C(=O)N2CC[C@@H](N(C)c3nc(OC[C@@]45CCCN4C[C@H](F)C5)nc4c(F)c(-c5nc(N)cc(C)c5C5CC5)ncc34)C2)n1 [Example 11, (E)-1-((R)-3-((7-(6-amino-3-cyclopropyl-4-methylpyridin-2-yl)-8-fluoro-2-(((2R,7aS)-2-fluorotetrahydro-1H-pyrrolizin-7a(5H)-yl)methoxy)pyrido[4,3-d]pyrimidin-4-yl)(methyl)amino)pyrrolidin-1-yl)-3-(3-methyl-1,2,4-oxadiazol-5-yl)prop-2-en-1-one] |
| 100 to 500 nM | CN1CC[C@H]1/C=C/C(=O)N1CC[C@@H](N(C)c2nc(OC[C@@]34CCCN3C[C@H](F)C4)nc3c(F)c(-c4nc(N)cc5cccc(F)c45)ncc23)C1 [Example 135] |
| ≥ 500 nM | C=CC(=O)N1CC[C@@H](N(C)c2nc(OCC34CCCN3CCC4)nc3c2C[C@@H](C)[C@H](c2nc(N)cc(C)c2C(F)(F)F)C3)C1 [Example 149, 1-((R)-3-(((6R,7R)-7-(6-amino-4-methyl-3-(trifluoromethyl)pyridin-2-yl)-6-methyl-2-((tetrahydro-1H-pyrrolizin-7a(5H)-yl)methoxy)-5,6,7,8-tetrahydroquinazolin-4-yl)(methyl)amino)pyrrolidin-1-yl)prop-2-en-1-one] |
| ≥ 500 nM | C=CC(=O)N1CC[C@@H](N(C)C2=c3cnc(-c4c[nH]nc4Cl)c(F)c3=NC(OC[C@@]34CCCN3C[C@H](F)C4)N2)C1 (stereo partly drawn) [Example 225] |
| ≥ 500 nM | C=CC(=O)N1CC[C@@H](N(C)c2nc(OC[C@@]34CCCN3C[C@H](F)C4)nc3c(F)c(-c4cc(C(F)F)ccc4Cl)ncc23)C1 [Example 251] |
| ≥ 500 nM | C=CC(=O)N1CC[C@H](O)[C@@H](N(C)c2nc(OC[C@@]34CCCN3C[C@H](F)C4)nc3c(F)c(-c4cccc(Cl)c4C(F)(F)F)ncc23)C1 [Example 205] |
| 10 to 100 nM | C=CC(=O)N1CC(CN(C)c2nc(OC[C@@]34CCCN3C[C@H](F)C4)nc3c(F)c(-c4nc(N)cc5cccc(Cl)c45)ncc23)C1 [Example 73, 1-(3-(((7-(3-amino-8-chloroisoquinolin-1-yl)-8-fluoro-2-(((2R,7aS)-2-fluorohexahydro-1H-pyrrolizin-7a-yl)methoxy)pyrido[4,3-d]pyrimidin-4-yl)(methyl)amino)methyl)azetidin-1-yl)prop-2-en-1-one] |
| < 10 nM | CN1CC[C@@H]1/C=C/C(=O)N1CC[C@@H](N(C)c2nc(OC[C@@]34CCCN3C[C@H](F)C4)nc3c(F)c(-c4nc(N)cc5cccc(Cl)c45)ncc23)C1 [Example 99] |
| 10 to 100 nM | C=CC(=O)N1CC[C@@H](N(C)c2nc(OC[C@@]34CCCN3C[C@H](F)C4)nc3c(F)c(-c4cccc5sc(N)nc45)ncc23)C1 [Example 244] |
| 100 to 500 nM | C=CC(=O)N1CC[C@@H](N(C)c2nc(OCC34CCCN3CCC4)nc3c2C[C@H](C)[C@@H](c2nc(N)cc(C)c2C(F)(F)F)C3)C1 (single isomer, unassigned) [Example 18] |
| 100 to 500 nM | C=CC(=O)N1CC(CN(C)c2nc(OC[C@@]34CCCN3C[C@H](F)C4)nc3c2C[C@@H](C)[C@H](c2nc(N)cc(C)c2C(F)(F)F)C3)C1 [Example 132] |
| 10 to 100 nM | C=CC(=O)N1CC[C@@H](N(C)c2nc(OCC34CCCN3CCC4)nc3c2CC(C)C(c2nc(N)cc(C)c2C(F)(F)F)C3)C1 (stereo partly drawn) [Example 32, 1-((3R)-3-((7-(6-amino-4-methyl-3-(trifluoromethyl)pyridin-2-yl)-2-((hexahydro-1H-pyrrolizin-7a-yl)methoxy)-6-methyl-5,6,7,8-tetrahydroquinazolin-4-yl)(methyl)amino)pyrrolidin-1-yl)prop-2-en-1-one] |
| 10 to 100 nM | Cc1cc(N)nc(-c2ncc3c(N(C)CC4CN(C(=O)C#CCN5CCOCC5)C4)nc(OC[C@@]45CCCN4C[C@H](F)C5)nc3c2F)c1C(F)(F)F [Example 114] |
| ≥ 500 nM | C=CC(=O)N1CC[C@@H](N(C)c2nc(OC[C@@]34CCCN3C[C@H](F)C4)nc3c(F)c(-c4ccc(O)cc4C4CC4)ncc23)C1 [Example 233] |
| ≥ 500 nM | C=CC(=O)N1CC[C@@H](N(C)c2nc(OC[C@@]34CCCN3C[C@H](F)C4)nc3c(F)c(-c4cncc5ccc(F)c(F)c45)ncc23)C1 [Example 190] |
| ≥ 500 nM | C=CC(=O)N1CC[C@@H](N(C)c2nc(OC[C@@]34CCCN3C[C@H](F)C4)nc3c(F)c(-c4cccc(C(F)F)c4C4CC4)ncc23)C1 [Example 195] |
| < 10 nM | Cc1noc(/C=C/C(=O)N2CC[C@@H](N(C)c3nc(OC[C@@]45CCCN4C[C@H](F)C5)nc4c3CC(C)C(c3nc(N)cc(C)c3C(F)(F)F)C4)C2)n1 (stereo partly drawn) [Example 115] |
| 10 to 100 nM | CN(CC1CN(C(=O)/C=C/CN2CCOCC2)C1)c1nc(OC[C@@]23CCCN2C[C@H](F)C3)nc2c(F)c(-c3nc(N)cc4cccc(Cl)c34)ncc12 [Example 84, (E)-1-(3-(((7-(3-amino-8-chloroisoquinolin-1-yl)-8-fluoro-2-(((2R,7aS)-2-fluorotetrahydro-1H-pyrrolizin-7a(5H)-yl)methoxy)pyrido[4,3-d]pyrimidin-4-yl)(methyl)amino)methyl)azetidin-1-yl)-4-morpholinobut-2-en-1-one] |
| < 10 nM | Cc1cc(N)nc(-c2ncc3c(N(C)[C@@H]4CCN(C#N)C4)nc(OC[C@@]45CCCN4C[C@H](F)C5)nc3c2F)c1C(F)(F)F [Example 239] |
| 100 to 500 nM | C=CC(=O)N1CC(CN(C)c2nc(OC[C@@]34CCCN3C[C@H](F)C4)nc3c2C[C@@H](C)[C@H](c2nc(N)cc(C)c2C(F)(F)F)C3)C1 (single isomer, unassigned) [Example 58] |
| ≥ 500 nM | C=CC(=O)N1CC[C@@H](N(C)c2nc(OC[C@@]34CCCN3C[C@H](F)C4)nc3c(F)c(-c4nccc(C)c4C(F)(F)F)ncc23)C1 [Example 211] |
| 10 to 100 nM | CN(c1nc(OC[C@@]23CCCN2C[C@H](F)C3)nc2c(F)c(-c3cccc(Cl)c3C3CC3)ncc12)[C@@H]1CCN(C(=O)/C=C/CN2C[C@H]3C[C@@H]2CO3)C1 [Example 245] |
| 10 to 100 nM | C=CC(=O)N1CC[C@@H](N(C)c2nc(OC[C@@]34CCCN3C[C@H](F)C4)nc3c(F)c(-c4nc(N)cc(C)c4C(F)(F)F)ncc23)C1 [Example 72, 1-((R)-3-((7-(6-amino-4-methyl-3-(trifluoromethyl)pyridin-2-yl)-8-fluoro-2-(((2R,7aS)-2-fluorotetrahydro-1H-pyrrolizin-7a(5H)-yl)methoxy)pyrido[4,3-d]pyrimidin-4-yl)(methyl)amino)pyrrolidin-1-yl)prop-2-en-1-one] |
| 100 to 500 nM | Cc1nccc(/C=C/C(=O)N2CC[C@@H](N(C)c3nc(OC[C@@]45CCCN4C[C@H](F)C5)nc4c(F)c(-c5cccc(Cl)c5C5CC5)ncc34)C2)n1 [Example 221] |
| < 10 nM | CN(CC1CN(C(=O)/C=C/c2nc(C(C)(C)O)no2)C1)c1nc(OC[C@@]23CCCN2C[C@H](F)C3)nc2c(F)c(-c3nc(N)cc4cccc(F)c34)ncc12 [Example 35, (E)-1-(3-(((7-(3-amino-8-fluoroisoquinolin-1-yl)-8-fluoro-2-(((2R,7aS)-2-fluorohexahydro-1H-pyrrolizin-7a-yl)methoxy)pyrido[4,3-d]pyrimidin-4-yl)(methyl)amino)methyl)azetidin-1-yl)-3-(3-(2-hydroxypropan-2-yl)-1,2,4-oxadiazol-5-yl)prop-2-en-1-one] |
| 10 to 100 nM | Cc1nsc(/C=C/C(=O)N2CC(CN(C)c3nc(OC[C@@]45CCCN4C[C@H](F)C5)nc4c3C[C@@H](C)[C@H](c3nc(N)cc(C)c3C(F)(F)F)C4)C2)n1 (single isomer, unassigned) [Example 126] |
